According to patent US20100076072A1, “COMPOSITIONS AND METHODS OF VITAMIN E ADMINISTRATION” (NORTHWESTERN UNIVERSITY, priority 2008, published 2010):

Tests used:
PKCα = target: T1, PKCα (Mus musculus, UniProt P20444); test: VCAM-1 activation of endothelial cell PKCα (PKCα-Thr638 phosphorylation, western blot); assay type: cell-based; conditions: overnight 80 μM α-tocopherol / 2 μM γ-tocopherol; anti-VCAM-1 stimulation 10 minutes
T1 construct: endogenous in cells; host or cells: endothelial cells (mHEVa named)
Method: Endothelial cells were pretreated overnight with physiological concentrations of tocopherols (80 μM α-tocopherol and/or 2 μM γ-tocopherol). Endothelial cell VCAM-1 was stimulated with anti-VCAM-1 and a secondary antibody for 10 minutes. Phosphorylation of PKCα-Thr^638 was examined by western blot, developed using an ECL kit, and analyzed by densitometry as in the methods section. These concentrations of α-tocopherol (80 μM) and γ-tocopherol (2 μM) were optimal for their inhibition or enhancement, respectively, of VCAM-1 activation of PKCα (data not shown). Shown are representative blots and data from 5 experiments. *, p<0.05 compared to nonstimulated groups. **, p<0.05 compared to nonstimulated groups and p<0.07 compared to DMSO-treated/anti-VCAM-stimulated group.

[1] = system: adhesion molecule expression; conditions: atherosclerosis models; cited from earlier work
[2] = system: endotoxin-stimulated neutrophil infiltration into the lung; conditions: other animal models; cited from earlier work
[3] = system: OVA-challenged mice (experimental asthma); test: OVA experimental asthma: leukocyte infiltration into bronchoalveolar lavage (BAL); assay type: in vivo, mouse
Method: Reagents. Ethoxylated castor oil was composed of polyethoxylated castor oil (PEG35), 20% ethanol, and 1% benzyl alcohol. […] The purified tocopherols were diluted in ethoxylated castor oil to indicated concentrations for the in vivo studies. The purified tocopherols were diluted in DMSO (0.2%) for the in vitro studies. OVA administration. BALB/c female mice were maintained on chow diet. The mice were sensitized by intraperitoneal injection (200 μl) of OVA grade V (10 μg)/alum or saline/alum on days 0 and 7 (SEE FIG. 1). On days 13-20, these mice received daily subcutaneous injections (50 μl) of 2 μg natural tocopherol/ethoxylated castor oil or ethoxylated castor oil alone. This daily 2 μg of natural tocopherol is equivalent to the amount of tocopherol that mice consume from diets (4 g diet consumed/day×500 mg α-tocopherol/kg diet) that are commonly used to elevate tissue tocopherols in mice. The mice recieved 2 μg d-α-tocopherol, 2 μg d-γ-tocopherol, 2 μg d-α-tocopherol plus 2 μg d-γ-tocopherol or the vehicle exthoxylated castor oil. […] During the OVA responses in mice, tocopherol radicals are recycled by endogenously synthesized ascorbic acid. On days 16, 18, and 20, the mice were challenged with intranasal OVA fraction VI (150 μg) in saline or saline alone. On day 21, the mice were analyzed for airway responsiveness followed by collection of tissues.
(§1) Tissue collection. After airway function analysis, mice were weighed, sacrificed and the lungs flushed twice with 0.8 ml PBS. The cells in this bronchoalveolar lavage (BAL) were cytospun onto slides, DiffQuik (Baxter) stained, and differential cell counts were performed. BAL supernatants were snap frozen and stored at −80° C. for cytokine analysis. Lungs were perfused free of blood and one quarter of the lung was tied off, collected, weighed, snap frozen, and stored at −80° C. for tocopherol analysis and PGE2 analysis. One quarter of the lung was collected and placed in RNA later for analysis of mRNA for eotaxin expression. The other half of the lung was injected with 40% freezing compound, collected and stored at −80° C. for tissue sections and histological staining Frozen sections were prepared rather than paraffin sections since the anti-mouse VCAM-1 antibodies only bind to VCAM-1 in frozen sections.
(§2) Mice were sensitized with intraperitoneal injection of OVA grade V (10 μg)/alum or saline/alum on days 0 and 7 (SEE FIG. 2). On days 13-20, these mice received daily subcutaneous injections (500) of 2 μg natural tocopherol/ethoxylated castor oil (33) or ethoxylated castor oil alone. This daily 2 μg of natural tocopherol is equivalent to the amount of tocopherol that mice consume from diets (4 g diet consumed/day×500 mg a tocopherol/kg diet) that are commonly used to elevate tissue tocopherols in mice. On days 16, 18, and 20 the mice were challenged with intranasal OVA fraction VI (150 μg) in saline or saline alone. On day 21, the mice were analyzed for airway responsiveness and then tissues were collected. Lung responsiveness was determined using methacholine and whole-body plethysmography as previously described. This method of measuring lung function has the advantage of analysis of larger numbers of animals, as compared to the few animals that can be analyzed using invasive measures of lung function. The whole-body plethysmography correlates well with airway function when performed under continuous flow conditions. This measurement under continuous flow is critical as it avoids the complication of airway conditioning that occurs if these measurements are incorrectly made under closed conditions. After airway analysis, mice were sacrificed and tissues collected.

[4] = Body and lung weights on day 21; assay type: in vivo, mouse; conditions: mice, day 21, daily s.c. tocopherol days 13-20
Method: as §1
Body weight and tocopherol levels in these mice were examined. […] Consistent with this, the body weight and lung weights of the mice studied during the development of embodiments of the present invention were unaltered by the α-tocopherol or γ-tocopherol treatments (SEE FIG. 3). Lungs were perfused to remove the blood, homogenized in ethanol and extracted with hexane. Tocopherol concentrations were determined by HPLC with an electrochemical detector. The lung tissue and plasma levels of tocopherols were elevated (SEE FIG. 4). […] The level of γ-tocopherol in the lung tissue of γ-tocopherol-treated mice was 10 fold lower than lung tissue α-tocopherol in the α-tocopherol-treated mice. This 10 fold difference in α-tocopherol and γ-tocopherol levels in the lung tissues may be caused preferential transfer of α-tocopherol in the liver by a TTP (20, 24), although the present invention is not limited to any particular mechanism of action and an understanding of the mechanism of action is not necessary to practice the present invention. […] Administration of tocopherols also had no effect on the low levels of δ-tocopherol in the lung (SEE FIG. 4A).

[5] = system: VCAM-1-dependent lymphocyte migration across mHEVa endothelial cells; test: Transendothelial migration assay with physiological laminar flow (parallel plate flow chamber); assay type: cell-based, mouse; conditions: endothelial cells pretreated overnight, washed; 15 minutes, 2 dynes/cm^2
Method: In vitro cell association and migration assays with laminar flow. The parallel plate flow chamber was used to examine migration under conditions of laminar flow. Endothelial cells were grown to confluence on slides and then the slide was placed in a parallel plate flow chamber. In vivo, in the absence of inflammation, the rapid fluid dynamics of the blood result in blood cells located midstream of the vascular flow. However, during inflammation, there is a change of fluid dynamics. […]
Therefore, spleen cells (3×10^6) were added to the flow chamber (35 cm^2) at 2 dynes/cm^2. […] To initiate spleen cell contact with the endothelial cells in vitro, the spleen cells were allowed to settle in the chamber as monitored by microscopy and then 2 dynes/cm^2 was applied for the 15 minute laminar flow assay. […] To quantify migrated spleen cells at 15 minutes, phase contrast microscopy was used to count migrated cells that are phase dark. Under laminar flow, spleen cell migration was detected at 15 minutes. The number of spleen cells that were associated but not migrated (phase light cells) at 15 minutes is low since in 15 minutes, the majority of non-migrating cells roll off the monolayer of endothelial cells as determined by microscopy. […]

[6] = system: VCAM-1-dependent spleen cell migration across mHEVa endothelial cells; test: In vitro Transwell migration assay; assay type: cell-based, mouse; conditions: for Migration after pretreatment of leukocytes with tocopherol and washing: leukocytes pretreated, washed; for Lymphocyte migration in transwell migration assay: tocopherol left in culture, 24 hours after addition of spleen cells, 80 μM α / 5 μM γ
Method: In vitro Transwell migration assay. mHEVa cells were grown to confluence on Transwells with 12 μm pores (Costar Cambridge, Mass.). The mHEVc cell monolayers block nonspecific accumulation of red blood cells in the lower transwell chamber and block FITC-albumin diffusion. Spleen cell migration is stimulated by mHEV cell secretion of the chemokine MCP-1. The number of lymphocytes that migrate is linear from 0-24 hrs followed by a plateau. Spleen cells that migrate are greater than 95% lymphocytes and the percentage of cells that migrate is consistent with other in vitro models with endothelial cell lines or cytokine-activated microvascular endothelial cells.
In this transendothelial migration assay used, the migrated spleen cells are >95% lymphocytes and the B cells and T cells migrate in response to MCP-1. […]

[7] = Tocopherol levels in lung tissue and plasma (HPLC, electrochemical detector); assay type: in vivo, mouse; conditions: for Lung tissue level of the other tocopherol (α vs γ) / Lung tissue level of the administered tocopherol: mice; for Lung tissue level of the administered tocopherol: day 21, daily s.c. 2 μg tocopherol days 13-20
Method: Body weight and tocopherol levels in these mice were examined. […] Lungs were perfused to remove the blood, homogenized in ethanol and extracted with hexane. Tocopherol concentrations were determined by HPLC with an electrochemical detector.

[8] = system: delayed-type-hypersensitivity responses; conditions: in vivo; cited from earlier work
[9] = system: OVA-challenged mice (experimental asthma); test: OVA experimental asthma: lung tissue eosinophils (anti-major basic protein immunolabeling); assay type: in vivo, mouse; conditions: daily s.c. 2 μg tocopherol days 13-20, day 21
lung = conditions: in vivo; cited from earlier work
[10] = system: OVA-challenged mice (experimental asthma); test: Airway hyperresponsiveness to methacholine, whole-body plethysmography (Penh); assay type: in vivo, mouse; conditions: for Airway hyperresponsiveness (AHR), enhanced pause (Penh): OVA-challenged BALB/c mice, methacholine dose curve, day 21
Method: Airway Hyperresponsiveness. Lung responsiveness was determined using methacholine as previously described. On day 21, the mice were analyzed for airway responsiveness by whole body plethysmology. The whole-body plethysmography on conscious, unrestrained mice was performed under continuous airflow conditions (Buxco, Troy, N.Y.). Continuous airflow was used to avoid the influence of conditioning on airway functions, causing aberrant measurements. Enhanced pause (Penh) values were calculated from the flow-derived whole-body plethysmography measurements done with continuous air flow. Penh is a unitless indicator of changes in airway resistance and correlates well with specific airway resistance. Baseline readings were averaged for 5 minutes. Saline or methacholine was nebulized into the airflow for 2-minute periods and the average Penh value calculated for this and the subsequent 8 minutes.
as §2, with “This measurement under continuous flow is critical as it avoids the complication of airway conditioning that occurs if these measurements are incorrectly made under closed conditions. After airway analysis, mice were sacrificed and tissues collected.” left out

[11] = in vivo; cited from earlier work
arthritis = test: Arthritis
[12] = OVA-challenged BALB/c mice, daily s.c. 2 μg tocopherol days 13-20, day 21, vs OVA-challenged vehicle
[13] = OVA-challenged mice, co-treatment with α-tocopherol

Which “VCAM-1 activation of PKCα (phosphorylation of PKCα-Thr638)” value (PKCα) does the source give for Cc1c(C)c2c(c(C)c1O)CC[C@@](C)(CCC[C@H](C)CCC[C@H](C)CCCC(C)C)O2 [α-tocopherol, d-α-tocopherol, reference compound] here?
The value was “inhibition”.

And the Adhesion molecule expression [1]?
Its Adhesion molecule expression is “inhibit”.

And the “Endotoxin-stimulated neutrophil infiltration into the lung” value [2]?
The value was “reduces”.

And the “OVA-stimulated infiltration of eosinophils into the BAL” value [3, 12]?
The value was “significantly reduced”.

What about the “OVA-stimulated infiltration of lymphocytes into the BAL” value [3, 12] of the same compound?
The value was “significantly reduced”.

What about the “OVA-stimulated infiltration of monocytes into the BAL” value [3, 12] of the same compound?
Its value is “significantly reduced”.

What about the Body weight [4] of the same compound?
Its Body weight is “unaltered”.

What about the Lung weights [4] of the same compound?
The Lung weights was “unaltered”.

What about the “VCAM-1-dependent lymphocyte migration under laminar flow” value [5] of the same compound?
The value was “inhibited”.

What about the “Migration after pretreatment of leukocytes with tocopherol and washing” value [6] of the same compound?
The value was “no effect on migration”.

And the “Lymphocyte migration in transwell migration assay” value [6]?
The value was “inhibited lymphocyte migration”.

And the “Increase in α-tocopherol in lungs of α-tocopherol-treated mice” value ([7]; day 21)?
The value was “five-fold increase”.

What about the “Lung tissue level of the other tocopherol (α vs γ)” value ([7]; day 21) of the same compound?
Its value is “did not alter”.

And the “Lung tissue level of the administered tocopherol” value [7]?
The value was “elevated levels”.

What about the Delayed-type-hypersensitivity responses [8] of the same compound?
The Delayed-type-hypersensitivity responses was “reduces”.

And the “Eosinophils in the lung tissue” value [9]?
Its value is “reduced”.

What about the “High oxidation by ozone and smoke in the lung” value (lung) of the same compound?
The value was “reduces”.

What about the “Airway hyperresponsiveness (AHR), enhanced pause (Penh)” value [10] of the same compound?
Its value is “completely ablated”.

What does the source list for Cc1c(O)cc2c(c1C)O[C@](C)(CCC[C@H](C)CCC[C@H](C)CCCC(C)C)CC2 [γ-tocopherol, d-γ-tocopherol]?
VCAM-1 activation of PKCα (phosphorylation of PKCα-Thr638) (PKCα): enhancement; Retention in tissues relative to α-tocopherol [11]: 10%; OVA-stimulated infiltration of eosinophils into the BAL [3, 12]: significantly increased; OVA-stimulated infiltration of lymphocytes into the BAL [3, 12]: significantly increased; OVA-stimulated infiltration of monocytes into the BAL [3, 12]: significantly increased; OVA-stimulated infiltration of neutrophils into the BAL [3, 12]: significantly increased; Effect on the benefit of α-tocopherol (BAL leukocyte infiltration) [3, 13]: blocked the benefit of α-tocopherol; Body weight [4]: unaltered; Lung weights [4]: unaltered; Effect on arthritis (arthritis): exacerbatory effect; Effect on α-tocopherol inhibition of spleen cell migration ([6]; 5 μM γ-tocopherol with α-tocopherol (80 μM)-treated cells): ablated; Lymphocyte migration after pretreatment of endothelial cells ([6]; endothelial cells pretreated, washed five times, transwell assay): elevated lymphocyte migration; Migration after pretreatment of leukocytes with tocopherol and washing [6]: no effect on migration; Lymphocyte migration in transwell migration assay [6]: significantly increases lymphocyte migration; Lung tissue γ-tocopherol in γ-tocopherol-treated mice relative to lung tissue α-tocopherol in α-tocopherol-treated mice ([7]; day 21): 10 fold lower; Lung tissue level of the other tocopherol (α vs γ) ([7]; day 21): did not alter; Lung tissue level of the administered tocopherol [7]: elevated levels; Eosinophils in the lung tissue [9]: elevated; Airway hyperresponsiveness (AHR), enhanced pause (Penh) [10]: elevated; Effect on α-tocopherol inhibition of AHR [10, 13]: antagonized the inhibition by α-tocopherol
